Reference: US10889552B2, “Dihydroxybenzamide compound having HSP90 inhibitory activity or pharmaceutically acceptable salt thereof, and medical use thereof” (priority 2016, dated 2021)

How the values were obtained:
[1] = test system: H1975 cells; assay: Cell viability by MTS analysis in H1975 cells resistant to Gefitinib; type: cell-based; conditions: H1975, cultured for 3 days
Procedure: To confirm the cell viability according to the concentration of the compound synthesized in H1975 cells (ATCC) resistant to Gefitinib, MTS [3-(4,5-dimethylthiazol-2-yl)-5-[…]carboxymethoxyphenyl)-2-(4-sulfophenyl)-2H-terazolium, inner salt] analysis was performed. When the cells were cultured so as to occupy 80% of the bottom of the culture dish, the cells were detached and diluted with RPMI 1640 medium to a concentration of 1.5×10^3 cells/well. Each 100 μL of the suspension was added to each well of a 96-well plate and cultured for 14 hours.

[2] = test system: H1975; assay: Cell proliferation / survival inhibition by MTS analysis (H1975); type: cell-based; conditions: for Inhibition rate at 10 μM (%) / Inhibition rate at 30 μM (%): test system not given
Procedure: Sk-Br3 (Korean cell line bank), a breast cancer cell, and H1975 cell (ATCC), a nonsmall cell lung cancer, were cultured in RPMI 1640 containing 25 mM HEPES (4-(2-hydroxyethyl)-1-piperazineethanesulfonic acid) and RPMI 1640 containing L-glutamine (containing streptomycin ([…]), penicillin (100 units/mL) and 10% fetal bovine serum (FBS)).
Next, non-metastatic lung cancer cells were treated with Compound 17 and the cell proliferation rate or cell survival rate was measured by MTS [3-(4,5-dimethylthiazol-2-yl)-5-(3-carboxymethoxyphenyl)-1-2H-tetrazolium, inner salt] analysis.
Cells were dispensed in 96-well plates at 3000 cell/well (Sk-Br3) and 2000 cell/well (H1975), and 100 μL of the medium was added per well and then was incubated overnight.
Cell proliferation was evaluated using the Promega Cell Titer 96 Aqueous One Solution cell proliferation assay.
After compound and cell culture, 20 μL of assay substrate solution was added to each well and incubated at 37° C. for an additional 1 hour.
Cell proliferation was confirmed by measuring the absorbance at 490 nm using a microplate reader (Tecan Infinite F200 Proplate reader).

[3] = Log P; type: physicochemical; conditions: text: measured values of Log P
Procedure: All experimental data were analyzed using Prism software (version 5.0, Graphpad Software, San Diego, Calif.). In addition, tPSA (Topological Polar Surface Area) calculated using Cherndraw software and the measured values of Log P are shown in Tables 1 and 2 below.

[4] = test system: HSP90 client protein (Her2, EGFR, Met, c-Raf, Akt), HSP70; assay: Analysis of protein expression (western blot) in H1975 cells, Compound 21f; type: cell-based
Procedure: Compound 21f having good efficacy was selected and HSP90 client protein proliferation effect in the same cell line was confirmed, in which the HSP90 client proteins were Her2 (human EGFR-related 2), EGFR (epidermal growth factor receptor), Met and c-Raf were used.
H1975 cells resistant to Gefitinib were cultured in a medium supplemented with 10% fetal bovine serum (FBS) for 24 hours, and the cells were detached, harvested and diluted with a RPMI 1640 medium so as to be 5×10^5 cells/well. Each 5 mL of the suspension was added to […] culture dish and cultured for 24 hours. Then, the medium was changed to the culture solution treated with each compound of concentration (21f 0, 0.05, 0.1, 0.5 or 1 μM, GA: 1 μM), and cultured for 24 hours. After culture, the cells were harvested and centrifuged at 1300 rpm for 5 minutes at 4° C., and the supernatant was removed. The pellet was washed with phosphate buffered saline, centrifuged once again under the same conditions, and the supernatant was removed. Lysis buffer was added to the remaining pellet and lysed by vortexing at 5 minute intervals for 30 minutes. The supernatant was separated by centrifugation at 16000 rcf for 4 minutes at 4° C., and proteins were quantified using BCA ([…]) kit. SDS-PAGE (sodium dodecylsulfate-polyacrylamide gel electrophoresis) was performed using 10, 12% running gel and 4% stacking gel (10 mA per gel). The separated proteins were transferred to an immunoblot PVDF, membrane (polyvinylidene fluoride membrane) at 100 V for 75 minutes. The membranes were blocked with 5% skim milk solution for 2 hours and then added a primary antibody diluted in the ratio of 1:750-1,000 in 0.1% tween-20 solution and reacted at 4° C. for 12 hours. After washing three times with TBS-T (Tris-buffered saline and Tween 20 containing Tween 20) and detected with an image analyzer using ECL (enhanced chemiluminescence) solution.

[5] = test system: H1975 cells; assay: H1975 colony formation inhibitory effect (clonogenic assay); type: cell-based; conditions: at 0.05 µM), 3 weeks, FIG. 3
Procedure: H1975 cells were treated with Compound 17 at a concentration of 0.05 or 0.5 μM for 3 weeks and then clogenic assay was performed.
First, RPMI1640 medium (10% FBS, 0.48% agar) was added to a 6-well plate and hardened, and then, 10000 cells (H1975) were dispensed in a medium containing RPMI1640 medium (10% FBS, 0.33% agar) and solidified. After solidification, the cells were treated with compound at a concentration of 0.05 or 0.5 […] for 24 hours, followed by culturing for 3 weeks, and then colony formation was confirmed using a crystal violet staining solution.

[6] = test system: HSP90 client protein of EGFR, Her2, Met, Akt, c-Raf, Cpk4; assay: Protein expression analysis (western blot) after Compound 17 treatment; type: cell-based; conditions: 0.05, 0.1, 0.5 or 1 μM, 24 hours, FIG. 4
Procedure: Next, the cells were dispensed into 100 mm culture dishes (1×10^6/dish) and adhered to the bottom surface overnight. Compound 17 at a concentration of 0.05, 0.1, 0.5 or 1 μM was added to the cells, followed by further culture for 24 hours.
In addition, cells were treated with DMSO (1%) or geladinamycin (1 μM) as a control and cultured for 24 hours.
The cultured cells were harvested and lysed in ice-cold lysis buffer (23 mM Tris-HCl pH 7.6, 130 mM NaCl, 1% NP40, […], 0.1% SDS (sodium dodecylsulfate)), and 30 μg of the lysate was separated by SDS-PAGE (SDS-polyacrylamide gel electrophoresis) and transferred to a PVDF membrane (Bio-Rad).
Membranes were blocked with TBST (Tween 20 containing iris-Buffered Saline) containing 5% skim milk and incubated with the respective primary antibodies [EGFR (Epidermal growth factor receptor), Her2 (human epidermal growth factor receptor type 2), Met, N-cadherin, E-cadherin, α-tubulin, acetyl-α-tubulin, protein kinase B (Akt), c-Raf, Cdk4 (Cyclin-dependent kinase 4), HSP90, HSP70, PARP (Poly […] Polymerase), caspase 3, cleaved caspase 3, truncated caspase 8, B-cell lymphoma 2 (Bcl-2). Bax or β-Actin, purchased from Cell Signaling Technology (USA)].
After binding to a secondary antibody conjugated with horseradish peroxidase, the protein was visualized by ECL (electrochemiluminescence, GE healthcare, USA).

## Cc1ccc(CN(C)C(=O)c2cc(Cl)c(O)cc2O)cc1 [Compound 16b, 5-chloro-2,4-dihydroxy-n-methyl-n-(4-methylbenzyl)benzamide]
[1]
  EC50: 34.3 µM

## O=C(c1cc(Cl)c(O)cc1O)N1CCCCC1 [Compound 11b]
[2]
  Inhibition rate at 10 μM (%): 7.6%
  Inhibition rate at 30 μM (%): 26.3%
[3]
  LogP: 1.69

## CC(=O)N1CCN(C(=O)c2cc(Cl)c(O)cc2O)CC1 [Compound 11f, 1-(4-(5-chloro-2,4-dihydroxybenzol)piperazin-1-yl)ethanone]
[2]
  Inhibition rate at 10 μM (%): 0%
  Inhibition rate at 30 μM (%): 10.5%
[3]
  LogP: 0.25

## 5-chloro-2,4-dihydroxy-n-methyl-n-(3-methylbenzyl)benzamide [Compound 14i]
[1]
  EC50: 47.5 µM

## 5-chloro-2,4-dihydroxy-n-methyl-n-(2-methylbenzyl)benzamide [Compound 16a]
[1]
  EC50: 49.3 µM

## CCCNC(=O)c1ccc(CN(C)C(=O)c2cc(C(C)C)c(O)cc2O)cc1 [Compound 21f, 2,4-dihydroxy-5-isopropyl-n-methyl-n-(4-(propylcarbamoyl)benzyl) benzamide]
[4]; 0, 0.05, 0.1, 0.5 or 1 μM, 24 hours, FIG. 5
  proliferation (expression) of the HSP90 client protein: inhibited in a concentration-dependent manner
[4]; H1975, 24 hours
  concentration at which Akt expression was significantly decreased: 0.5 µM
  concentration at which EGFR expression was significantly decreased: 0.1 µM
  concentration at which Her2 expression was significantly decreased: 0.5 µM
  concentration at which Met expression was significantly decreased: 0.5 µM
  concentration at which expression of HSP70 was increased: 0.5 µM

## COc1cc(CN(C)C(=O)c2cc(Cl)c(O)cc2O)c(Cl)c(OC)c1OC [Compound 14g, 5-chloro-n-(2-chloro-3,4,5-trimethoxybenzyl)-2,4-dihydroxy-n-methylbenzamide]
[1]
  EC50: 33.8 µM

## CC(C)c1cc(C(=O)N2CCN(C)CC2c2ccccc2)c(O)cc1O (centres unmarked) [Compound 17, (2,4-dihydroxy-5-isopropylphenyl)(4-methyl-2-phenylpiperazin-1-yl)methanone]
[2]; 0-70 μM, 1, 2 and 3 days, FIG. 2A
  proliferation rate of the cells: inhibited in a concentration-dependent manner
[5]
  colony formation of H1975: inhibited the colony formation
[6]
  HSP protein inhibition / degradation of HSP90 client protein: inhibited HSP protein in concentration-dependent manner

## CCCNC(=O)c1ccc(CN(C)C(=O)c2cc(Cl)c(O)cc2O)cc1 [Compound 21c, 5-chloro-2,4-dihydroxy-n-methyl-n-(4-(propylcarbamoyl)benzyl)benzamide]
[1]
  EC50: 20.8 µM

## COc1ccc(CN(C)C(=O)c2cc(Cl)c(O)cc2O)cc1OC [Compound 14d, 5-chloro-n-(3,4-dimethoxybenzyl)-2,4-dihydroxy-n-methylbenzamide]
[1]
  EC50: 33.4 µM

## COc1ccc(CN(C)C(=O)c2cc(Cl)c(O)cc2O)cc1 [Compound 14c, 5-chloro-2,4-dihydroxy-n-(4-methoxybenzyl)-n-methylbenzamide]
[1]
  EC50: 16.7 µM

## CCNC(=O)c1ccc(CN(C)C(=O)c2cc(Cl)c(O)cc2O)cc1 [Compound 21b, 5-chloro-n-(4-(ethylcarbamoyl)benzyl)-2,4-dihydroxy-n-methylbenzamide]
[1]
  EC50: 21.7 µM
